Measurements as given in patent US6869956B2, “Methods of treating inflammatory and immune diseases using inhibitors of IκB kinase (IKK)” (Bristol-Myers Squibb Company, priority 2000, dated 2005).

What was measured:
[1] = tested on: TNFα production in THP-1 cells; assay: TNFα production assay in LPS-stimulated THP-1 cells; type: cell-based; details: Homo sapiens, 6 hours, ELISA, read-out: IC50 in TNF-α production assay
Procedure: THP-1 (human monocytic cell line) obtained from ATCC was cultured in RPMI-1640 supplemented with 10% FBS, sodium pyruvate, HEPES, 2-mercaptoethanol, Penicillin/Streptomycin. To a 96-well plate containing THP-1 cells (1.4×10^6/mL, 2.5×10^5 cells/well) in 180 μL RPMI-1640 was added 20 μL of the test compound in 10% DMSO. […] After one hour at 37° C., 20 μL of 1000 ng/mL lipopolysaccharide (LPS from Salmonella typhosa, Sigma) was added to each well. After an additional 6 hours at 37° C., the supernatants were collected following a 5 minute centrifugation of the plate to pellet the cells. The amount of TNFα in these supernatants was then measured using a TNFα-specific ELISA (Pharmingen). […] IC50 values were calculated from the percentage inhibition at various doses.

[2] = tested on: ovalbumin-induced inflammatory cell infiltration in the lung; assay: Ovalbumin-induced inflammatory cell infiltration into the lung of sensitized mice; type: in vivo, BALB/c mice; details: for Total Inflammatory Cells in BAL: days 14 to 17, BAL on day 18
Procedure: In the pulmonary inflammation animal model, BALB/c mice were sensitized by an intraperitoneal injection of 0.1 mL alum-precipitated antigen containing 40 μg ovalbumin adsorbed to aluminum hydroxide gel on days 0 and 10. On day 14, animals received intranasal challenge with 100 μg ovalbumin in 50 μl saline (PBS). Mice were injected intraperitoneally with antigen to sensitize the animals prior to intranasal challenge to induce lung inflammation. Administration of the test compound was given on days 14 to 17. On day 18, bronchoalveolar lavage fluid (BAL) was collected for measurements of total inflammatory cell infiltration (eosinophils, monocytes, lymphocytes, and neutrophils).

[3] = tested on: collagen-induced arthritis; assay: Murine model of collagen-induced arthritis; type: in vivo, DBA/1 LacJ male mice; set-up: Cumulative arthritis injury score (±sem): scale not given here
Procedure: DBA/1 LacJ male mice 6-8 wk (Jackson Laboratories; Bar Harbor, Me.) were immunized subcutaneously on day 0 and on day 21 with 100 μg bovine type 11 collagen in 0.1 mL RIBI Adjuvant System (RAS) with monophosphoryl lipid A(RIBI lmmunoChem Research; Hamilton, Mont.). In this model, disease onset occurs within one week after the second collagen injection.
When treated in a preventative mode, test compounds were administered daily beginning on day 0 through day 41.
In the established (i.e. therapeutic) mode, the administration of test compounds was initiated only after paw inflammation of an animal had achieved a score of 2 (as defined below), at which time, the animal was randomly assigned to a treatment group. Treatment continued daily for all four paws as described below.
Following the Day 21 booster, mice were regularly monitored for the development and severity of paw inflammation.
Clinical paw scores for all four paws were summed for each mouse and the mean ± standard deviation (SD) was calculated for each treatment group.
Histological scoring involved evaluating histologically and grading semi-quantitatively tibiotarsal joints of sacrificed mice, specifically examining the severity of inflammation, synovial hyperplasia, bone resorption, and cartilage erosion. Cumulative arthritis injury scores for each group were compared by the nonparametric Kruskal-Wallis analysis of variance.

DSS-induced colitis = assay: Dextran sulfate sodium-induced murine model of inflammatory bowel disease; type: in vivo, Swiss-Webster mice; details: for Mean clinical score: colon, scale 0-3
Procedure: In this model, Swiss-Webster mice (8 weeks old, 5 animals per treatment group) were given 6% DSS in their drinking water for 7 consecutive days to induce intestinal inflammation. Test compounds were administered daily throughout the study. On day 9, animals were sacrificed and the colons were removed for clinical and histological evaluation.
Clinical scoring was determined by the gross clinical evaluation of the injury on a scale from 0 (normal) to 3 (severe) as detailed in Table 7.
For histological scoring, colon sections were graded as to the severity of crypt injury and the degree of inflammation. The crypt injury was scored as detailed in Table 8, wherein the crypt is part of the glandular make-up of the colon.
Tissue involvement was scored as detailed in Table 9. Any signs of crypt injury or inflammation, regardless of severity, constitute tissue involvement.
The injury histological score is defined as the product of the crypt injury grade and the tissue involvement grade. The scoring of severity of inflammation is detailed in Table 10.
The inflammation histological score is the product of the severity of inflammation grade and the extent of tissue involvement grade. Crypt injury and inflammatory scoring were performed on each colon section and a mean score and standard error were determined for each section. Cumulative crypt injury and inflammatory scores for each group were determined. The results of Table 12 present the cumulative injury and inflammation scores of colons in mice with DSS-induced colitis.

Pharmacokinetics in mice = type: in vivo; details: mouse, plasma, BALB/c mice
Procedure: Compound 6 was administered to BALB/c mice either per orally (p.o.) or intravenously (i.v.). Blood was drawn at various times (0.5 to 4 hours) after dosing and the plasma drug levels measured by liquid chromatography-mass spectral analysis.

[4] = tested on: transplanted hearts (graft rejection); assay: Murine neonatal heart to ear transplants, graft survival; type: in vivo, BALB/c mice
Procedure: Cardiac transplants were performed as described by Fulmer et al. (Fulmer, R. I. et al. The American Journal of Anatomy 113:273-281, 1963). Neonatal hearts were obtained from newborn C57BL/6 mice not more than 48 hours after birth. The hearts were transplanted into recipient BALB/c mice, which were prepared under anesthesia by making a small incision at the base of the ear pinna and forming a pocket by gently lifting the skin away from the ear. The incision permitted the insertion of the donor heart subcutaneously into the pocket. […] The pulsations of the heart were measured by contractile activity with an appropriate electrocardiogram (ECG) monitoring device. The contractile activity of the transplanted graft was monitored daily. The time of graft rejection was defined as the day after transplantation on which contractile activity ceased. Without therapeutic intervention, the host mounts an immune response to the transplanted heart (i.e., graft rejection). This immune response causes the transplanted heart to cease beating typically 10-14 days post transplantation.
Test compounds were administered in daily doses either alone or in combination with other therapies, such as Cyclosporine A (15 mg/kg, orally, “p.o.”) or CTLA4-Ig (200 μg in 200 μl PBS given intraperitoneally on only days 0, 2, and 4). Table 2 presents the effects of test compounds on median survival time of transplanted hearts, either alone or in combination with Cyclosporine A (CsA). Table 3 presents the effects of test compounds on median survival time of transplanted hearts, either alone or in combination with CTLA4-Ig.

LPS-induced serum TNFα = LPS-induced serum TNFα in mice; type: in vivo, BALB/c mice; details: p.o.
Procedure: As a measure of activity against NF-κB-dependent TNFα production in vivo, test compounds were administered to BALB/c mice subsequently challenged with an intravenous dose of E. coli LPS (1 μg in 100 μL phosphate-buffered saline). One hour after LPS challenge, blood was collected from the mice and the levels of TNFα in the serum measured by EIA(R&D Systems). Inhibition was calculated from control animals which received LPS challenge with no test compound.

Cc1ccc2nc(NCCN)c3ncc(C)n3c2c1 [Compound 6, 4(2′-aminoethyl)amino-1,8-dimethylimidazo(1,2-a)quinoxaline]
IC50 [1]: 4 µM | Total Inflammatory Cells in BAL ([2]; 30 mg/kg p.o.): 2.8 × 10^6 ± 1.3 × 10^6 | Total Inflammatory Cells in BAL ([2]; 100 mg/kg p.o.): 2.2 × 10^6 ± 0.3 × 10^6 | total inflammatory cells in the lungs vs untreated mice ([2]; administration after ovalbumin challenge): statistically significant decrease in total inflammatory cells in the lungs | Cumulative arthritis injury score (±sem) ([3]; established mode, 10 mg/kg, two weeks after disease onset): 4.2 ± 1.0 | disease progression ([3]; established mode, 30 mg/kg p.o., vs vehicle): significantly inhibited disease progression | Cumulative arthritis injury score (±sem) ([3]; established mode, 30 mg/kg, two weeks after disease onset): 2.1 ± 0.9 | disease progression ([3]; established mode, 100 mg/kg p.o.): significant disease resolution | Cumulative arthritis injury score (±sem) ([3]; established mode, 100 mg/kg, two weeks after disease onset): 0.9 ± 0.5 | Cumulative arthritis injury score (±sem) ([3]; preventative mode, 10 mg/kg): 5.3 ± 1.7 | Cumulative arthritis injury score (±sem) ([3]; preventative mode, 30 mg/kg): 0.4 ± 0.4 | disease onset ([3]; preventative mode, 30 mg/kg p.o. daily): inhibited disease onset | Cumulative arthritis injury score (±sem) ([3]; preventative mode, 30 mg/kg, listed as compound 6, 30 mg/kg): 0.4 | Cumulative arthritis injury score (±sem) ([3]; preventative mode, 100 mg/kg): 0.0 | incidence of disease (FIG. 1) ([3]; preventative mode, 100 mg/kg daily, vs vehicle): significant difference in incidence of disease | disease onset ([3]; preventative mode, 100 mg/kg p.o. daily): prevented any disease onset | Cumulative arthritis injury score (±sem) ([3]; preventative mode, 100 mg/kg, listed as compound 6, 100 mg/kg): 0 | Group Mean Inflammation Histological Score (DSS-induced colitis; 30 mg/kg p.o. daily): 7.58 ± 0.81 | Group Mean Injury Histological Score (DSS-induced colitis; 30 mg/kg p.o. daily): 4.83 ± 0.55 | Mean clinical score (DSS-induced colitis; 30 mg/kg p.o. daily): 1.10 ± 0.49 | Group Mean Inflammation Histological Score (DSS-induced colitis; 100 mg/kg p.o. daily): 6.82 ± 0.85 | Group Mean Injury Histological Score (DSS-induced colitis; 100 mg/kg p.o. daily): 5.66 ± 0.87 | Mean clinical score (DSS-induced colitis; 100 mg/kg p.o. daily): 1.00 ± 0.35 | clinical and histological score vs untreated mice (DSS-induced colitis; daily administration): statistically significant decrease in clinical and histological score | half-life (Pharmacokinetics in mice; iv, apparent terminal elimination phase after i.v. dose): 7.9 h | bioavailability (Pharmacokinetics in mice; oral, AUC p.o. divided by AUC i.v.): 100% | Median Graft Survival Time ([4]; CTLA4-Ig (200 μg i.p. days 0, 2, 4) plus Compound 6 50 mg/kg p.o.): 32 days | Median Graft Survival Time ([4]; CTLA4-Ig (200 μg i.p. days 0, 2, 4) plus Compound 6 100 mg/kg p.o.): >60 days | Median Graft Survival Time ([4]; Compound 6 50 mg/kg p.o. alone): 12 days | Median Graft Survival Time ([4]; Cyclosporine A 15 mg/kg p.o. plus Compound 6 50 mg/kg p.o.): 29 days | effect of combination with cyclosporine A or CTLA4-Ig on graft survival ([4]; co-administered with cyclosporine A or CTLA4-Ig): synergistic effects | inhibition of the LPS-induced serum TNFα levels in vivo (LPS-induced serum TNFα; 10 mg/kg): 27-63% | inhibition of the LPS-induced serum TNFα levels in vivo (LPS-induced serum TNFα; 30 mg/kg): 53-89% | inhibition of the LPS-induced serum TNFα levels in vivo (LPS-induced serum TNFα; 50 mg/kg): 83-92%
